The record followed here is PubChem BioAssay (NCI).

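Exposure lasted 48 hours, with cells grown in 96-well plates and compounds tested at five concentrations. TGI: concentration producing complete growth inhibition.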 Some results are limits rather than exact numbers.

Holding throughout (test): NCI-60 cell line screen, 48 h
In assay [1] the test system is HCT-15 colon.
The test system of assay [2] is MALME-3M melanoma.
Assay [3] has as its system DU-145 prostate.
Assay [4] has as its system SW-620 colon.
Assay [5] concerns MDA-MB-231 breast.
In assay [6] the test system is SF-268 CNS.
Assay [7] concerns U251 CNS.
For assay [8], the system named is SF-539 CNS.
For assay [9], the system named is CCRF-CEM leukemia.
For assay [10], the system named is EKVX NSCLC.
Assay [11] relates to NCI-H23 lung.
In assay [12] the test system is T-47D breast.
Assay [13] deals with SF-295 CNS.
The test system of assay [14] is SK-MEL-2 melanoma.
Assay [15] deals with OVCAR-4 ovarian.
The subject of assay [16] is MCF7 breast.
Assay [17] concerns OVCAR-3 ovarian.
Assay [18] has as its system ACHN renal.
The test system of assay [19] is A498 renal.
Assay [20] concerns UACC-62 melanoma.

For `CCN(CC)CCN(C(=Nc1ccccc1)N1CCCCC1)c1ccccc1`, the TGI in assay [1] was above 100 µM; in assay [2], 40.1 µM; in [3] it was above 100 µM; in assay [4], above 100 µM; in assay [5], 38.8 µM; in assay [6], above 100 µM. The TGI in assay [7] was 43.3 µM; in assay [8] it was 40 µM; in [9] it was 46.5 µM; in assay [10], above 100 µM; in [11], 25.6 µM; in assay [12] it was 9.92 µM. In addition, the TGI is 17.9 µM in assay [13]; 37.7 µM in [14]; 57.8 µM in assay [15]; 56.7 µM in [16]; 28.3 µM in assay [17].

`CCOC(=O)C1(C(=O)OCC)C[C@@H](C)[C@@H](O)C1`: the TGI in assay [1], in [2], in assay [3], in assay [4], in [5] and in [6] was above 100 µM each time. The TGI in assay [18], in assay [19], in assay [7], in assay [8], in [9] and in [10] was above 100 µM throughout. Besides, the TGI in assay [11], in [13], in assay [20], in assay [14], in assay [15] and in [16] was above 100 µM in each case. In assay [17], this compound yielded a TGI above 100 µM.

For the compound `CC(=O)OCC1OC(n2c3c(cc(C#N)c2=S)CCC3)C(OC(C)=O)C(OC(C)=O)C1OC(C)=O` (stereo not drawn), the TGI in [1], in assay [2], in assay [3], in [4], in [5] and in [6] was above 100 µM in each case. The TGI in assay [18], in assay [19], in assay [7], in assay [8], in assay [9] and in assay [11] was above 100 µM in each case. In addition, the TGI in assay [12], in assay [13], in assay [20], in assay [14], in assay [15] and in assay [16] was above 100 µM throughout.

Take `CCSc1cc2c(cc1O)CC[C@@H]1[C@@H]2CC[C@]2(C)[C@@H](O)CC[C@@H]12`: the TGI in assay [1] turned out to be 23.2 µM; in assay [2], 23.8 µM; in assay [3] it was 74.9 µM; in assay [4], 13.2 µM; in [5], 18.8 µM; in assay [6] it was 55 µM. In addition, the TGI came out at 24.9 µM in assay [18]; 28.9 µM in assay [19]; 25.2 µM in assay [7]; 34.3 µM in [8]; 30.8 µM in assay [9]; 44.3 µM in assay [11]. Also, the TGI in assay [20] is 27.7 µM; in assay [14] it was 37.7 µM; in assay [15], 38.7 µM; in assay [16], 27.5 µM.

`CCOC(=O)C1(N)CCc2[nH][nH]c(=O)c2C1` (stereo not drawn): the TGI in assay [1], in assay [2], in assay [4], in assay [5], in assay [18] and in assay [19] was above 100 µM each time. The TGI in [7], in assay [8], in assay [9], in assay [10], in assay [11] and in [12] was above 100 µM each time. The TGI in assay [13], in [20], in assay [14], in assay [15], in assay [16] and in assay [17] was above 100 µM throughout.

In the case of `CC1=NNC(=O)C1C1CC(c2c[nH]c3ccccc23)=NN(C(N)=O)C1=O` (stereo not drawn), the TGI in [1], in [2], in assay [3], in [4], in assay [5] and in [6] was above 100 µM throughout. In addition, the TGI in [18], in assay [19], in [7], in [8], in [9] and in [10] was above 100 µM in each case. For the same compound, the TGI in assay [11], in assay [12], in [13], in assay [20], in assay [14] and in assay [17] was above 100 µM each time.

In the case of `Nc1ccc(Oc2ccc(C3(c4ccc(Oc5ccc(N)cc5)cc4)C4CC5CC(C4)CC3C5)cc2)cc1`, the TGI is 35.7 µM in [1]; above 64.2 µM in assay [2]; above 53.5 µM in assay [3]; above 66.5 µM in assay [4]; 37.6 µM in assay [5]; above 95.3 µM in assay [6]. The TGI in [18] is above 62.9 µM; in [19], 9.36 µM; in assay [7], 21.5 µM; in assay [8], above 66.2 µM; in assay [9], 35.8 µM; in [10], above 81.4 µM. For the same compound, the TGI is above 48.3 µM in [11]; 73.8 µM in assay [13]; 49.1 µM in assay [20]; above 100 µM in assay [14]; above 74 µM in assay [15]; above 52.7 µM in assay [16]. Also, the TGI in [17] came out at 9.78 µM.

Regarding `CCOC(=O)Cn1c(=O)c2nc(SC)sc2n(-c2ccccc2)c1=S`, the TGI was above 100 µM in [1]; 60.2 µM in assay [2]; above 100 µM in assay [3]; above 100 µM in assay [4]; 72.9 µM in assay [5]; above 100 µM in [6]. Moreover, the TGI is 43.4 µM in assay [18]; 29.3 µM in assay [7]; 31.6 µM in assay [8]; above 100 µM in assay [9]; above 100 µM in [11]; above 100 µM in assay [12]. Also, the TGI in assay [13] was above 100 µM; in assay [20] it was 11.5 µM; in [14], 63.1 µM; in assay [15], 35.2 µM; in assay [16] it was above 100 µM; in [17] it was 97.7 µM.

In the case of `COC(=O)C(C)(C)[C@@H]1OC(=O)N(S(=O)(=O)c2c(C)cc(C)cc2C)[C@H]1C(C)C`, the TGI in [1], in assay [2], in assay [3], in assay [4], in assay [5] and in assay [6] was above 100 µM in each case. Also, the TGI in assay [18], in assay [7], in assay [8], in [9], in [10] and in [11] was above 100 µM in each case. In addition, the TGI in assay [12], in assay [13], in assay [20], in assay [14], in [15] and in [16] was above 100 µM in each case. The compound also had a TGI in assay [17] above 100 µM.

For the compound `CC(C)(C)OC(=O)NC(Cc1ccc(O)cn1)C(=O)O` (stereo not drawn), the TGI in [1], in [2], in assay [3], in assay [4], in [5] and in [6] was above 100 µM in each case. The TGI in assay [18], in [19], in [7], in assay [8], in assay [10] and in assay [11] was above 100 µM throughout. Moreover, the TGI in [13], in [15], in assay [16] and in [17] was above 100 µM each time.

As to `C/C=C1\CC2C(=O)CCC2C2c3ccccc3OC12` (stereo not drawn), the TGI in assay [1] was above 100 µM; in assay [2], above 100 µM; in assay [3], 10.7 µM; in [4] it was above 100 µM; in [5] it was above 100 µM; in assay [6] it was above 100 µM. Further, the TGI in assay [18], in [7], in assay [8], in assay [9], in assay [10] and in [11] was above 100 µM throughout. The TGI in assay [13], in assay [20], in [14], in assay [15], in assay [16] and in assay [17] was above 100 µM each time.

As to `O=C(NNC1=NCCCCN1)Nc1ccc(Cl)cc1`, the TGI in assay [1], in [2], in [4], in assay [6], in assay [18] and in assay [19] was above 100 µM throughout. In addition, the TGI in [7], in [8], in [9], in assay [10], in [11] and in [12] was above 100 µM each time. The TGI in assay [13], in [20], in assay [14], in [15], in assay [16] and in assay [17] was above 100 µM throughout.

Consider `C[Si](C)(N[Si](C)(C)OCCc1ccccc1)OCCc1ccccc1`, for which the TGI in assay [1], in assay [3], in [4], in assay [18], in [19] and in [7] was above 100 µM in each case. In addition, the TGI in assay [9], in [10], in assay [11], in assay [12], in [13] and in assay [20] was above 100 µM in each case. The TGI in assay [14], in assay [15], in [16] and in assay [17] was above 100 µM throughout.

For the compound `CCN(CC)C1CCC(C2c3cc4c(cc3OC(N3CCOCC3)C2C)OCO4)CC1` (stereo not drawn), the TGI in assay [1] was above 100 µM; in assay [2] it was 90.7 µM; in assay [3], above 100 µM; in [4] it was above 100 µM; in assay [6], above 100 µM; in assay [18], above 100 µM. For the same compound, the TGI in [19] is 60.7 µM; in [7] it was above 100 µM; in [8], 57 µM; in [9], above 100 µM; in assay [10], above 100 µM; in assay [11], above 100 µM. In addition, the TGI was above 96.7 µM in assay [12]; above 100 µM in [13]; above 100 µM in assay [20]; 42.2 µM in assay [14]; above 100 µM in [15]; above 84.1 µM in [16]. The compound also returned a TGI in assay [17] of 99.1 µM.

As to `CC1=NC2c3c(-c4ccc(Cl)cc4)cn(-c4ccc(C)cc4)c3N=CN2N1` (stereo not drawn), the TGI in assay [1], in assay [2], in [3], in assay [4], in assay [5] and in assay [6] was above 100 µM throughout. Moreover, the TGI in assay [18], in [19], in [7], in assay [8], in assay [9] and in assay [10] was above 100 µM each time. The TGI is above 100 µM in assay [11]; above 100 µM in assay [13]; above 100 µM in assay [20]; above 100 µM in [14]; 33.3 µM in [15]; above 100 µM in [16]. Moreover, in assay [17], the TGI was above 100 µM.
